Where “and” joins values, the source holds several entries; their conditions need not be identical. Equal values may be shown once. Read-outs that look alike come from different tables or passages of the source. Numbered stars: 1 amine (or outer) side, 2 acyl side, 3 side chain; on linkers, the order of the positions; unused ones are H or OH. Peptide text beside a SMILES is read from it. * marks the point of attachment. X1 = COc1cccc2c1C(=O)c1c(O)c3c(c(O)c1C2=O)C[C@@](O)(C(=O)CO)C[C@@H]3O[C@H]1C[C@H](NC(=O)CCN2C(=O)CC(*)C2=O)[C@H](O)[C@H](C)O1; Doxorubicin(3'-N) = COc1cccc2c1C(=O)c1c(O)c3c(c(O)c1C2=O)C[C@@](O)(C(=O)CO)C[C@@H]3O[C@H]1C[C@H](N*)[C@H](O)[C@H](C)O1; Suc = O=C(CCC(=O)[*:2])[*:1]
Tests used:
Format in all cases: cell-based, human
resistant K562/ADR cells [1] = experiment: Cytotoxicity, MTT test, resistant line; details: for F. Rev (reversion factor): K562/ADR, effect of the vector on susceptibility, free doxo versus compound; for F. Res (resistance factor): ratio of IC50 values, resistant line K562/ADR versus susceptible K562
Description: (§1) The susceptible K562 chronic myeloid leukaemia cells, resistant K562/ADR cells and HL60/R10 promyeloid leukaemia cells are of human origin and were obtained commercially from the ATCC. The cells are inoculated at a rate of approximately 10^4 cells per well, 24 hours before adding the products. The cells are kept in culture at 37° C. in an atmosphere at 95% humidity and 5% CO2 in an OptiMem medium.
[…] At the end of the culture period, MTT (3-(4,5-dimethylthiazole-2-yl)-2,5-diphenyltetrazolium bromide) is added into the wells and the culture plates are then incubated for 4 hours in the incubator. The resulting crystalline formazan deposit is then dissolved by adding 200 μl of DMF/SDS. The optical density (OD) is measured at 550 nm (reference 630 nm) using a microplate reader.
(§2) The graphic representation of the OD percentages of the wells treated as a function of the concentration of products is used to determine the IC50 which corresponds to the concentration of product that inhibits 50% of growth.
The IC50 values are used to quantify the resistance factor (F. Res) of the resistant lines using the following ratio:
The reversion factor (F. Rev) corresponds to the effect of a modulator (the vector) on the susceptibility of the cells to the anti-tumour agents according to the following ratio:
The susceptibility of the cells to anti-tumour agents was measured using the MTT test under the experimental conditions defined above wherein the relationship between the optical density and the number of viable cells is linear.

[2] = tested on: HL60/R10 promyeloid leukaemia cells; experiment: Cytotoxicity, MTT test, HL60/R10
Description: as §1
The susceptible K562 cells and resistant K562/ADR cells are incubated either with free doxorubicin or with doxorubicin in a vector at increasing concentrations after 48 hours in culture in the presence of the products. At the end of the culture period, MTT (3-(4,5-dimethylthiazole-2-yl)-2,5-diphenyltetrazolium bromide) is added into the wells and the culture plates are then incubated for 4 hours in the incubator. The resulting crystalline formazan deposit is then dissolved by adding 200 μl of DMF/SDS. The optical density (OD) is measured at 550 nm (reference 630 nm) using a microplate reader.
as §2
The reversion factor (F. Rev) corresponds to the effect of a modulator (the vector) on the susceptibility of the cells to the anti-tumour agents according to the following ratio: […]

resistant K562/ADR cells [3] = experiment: Internalisation by flow cytometry; details: 3 μM, 30 min incubation at 37° C.
Description: as §1
The susceptible K562 cells and resistant K562/ADR cells are incubated either with free doxorubicin or with doxorubicin in a vector at a concentration of 3 μM. After 30 minutes of incubation at 37° C., the cells are washed three times with PBS. The internalisation of the products is then analysed by flow cytometry. The samples are analysed with a flow cytometer equipped with a 15 mA argon laser. The fluorescence emitted is recorded on a logarithmic scale at (575 NM) nm after an excitation at (488) nm. The fluorescence is measured on 10,000 cells selected according to the […] parameters. The results are expressed as a percentage of positive cells of the fluorescence intensity logarithm. The results are analysed using the software program Cell Quest.
The susceptible K562 cells and resistant K562/ADR cells are incubated either with free doxorubicin or with doxorubicin in the vector. After 30 min of incubation, the internalisation of the products is measured by flow cytometry.

[4] = tested on: susceptible K562 chronic myeloid leukaemia cells; experiment: Cytotoxicity, MTT test, susceptible line; details: 8 μM, 24 hours incubation

Compound	F. Rev (reversion factor) (resistant K562/ADR cells [1])	F. Res (resistance factor) (resistant K562/ADR cells [1])	further results
COc1cccc2c1C(=O)c1c(O)c3c(c(O)c1C2=O)C[C@@](O)(C(=O)CO)C[C@@H]3O[C@H]1C[C@H](NC(=O)CCC(=O)N[C@@H](CCCNC(=N)N)C(=O)NCC(=O)NCC(=O)N[C@@H](CCCNC(=N)N)C(=O)N[C@@H](CC(C)C)C(=O)N[C@@H](CO)C(=O)N[C@@H](Cc2ccc(O)cc2)C(=O)N[C@@H](CO)C(=O)N[C@@H](CCCNC(=N)N)C(=O)N[C@@H](CCCNC(=N)N)C(=O)N[C@@H](CCCNC(=N)N)C(=O)N[C@@H](Cc2ccccc2)C(=O)N[C@@H](CO)C(=O)N[C@H](C(=O)N[C@@H](CO)C(=O)N[C@H](C(=O)NCC(=O)N[C@@H](CCCNC(=N)N)C(=O)O)[C@@H](C)O)[C@@H](C)O)[C@H](O)[C@H](C)O1 [Compound 1, doxo-CO-(CH2)2-CO-RGGRLSYSRRRFSTSTGR] ({Doxorubicin(3'-N)-Suc}-RGGRLSYSRRRFSTSTGR-OH; N-terminus and C-terminus assumed)	2.5	0.7	
COc1cccc2c1C(=O)c1c(O)c3c(c(O)c1C2=O)C[C@@](O)(C(=O)CO)C[C@@H]3O[C@H]1C[C@H](NC(=O)CCC(=O)N[C@@H](CCCNC(=N)N)C(=O)NCC(=O)NCC(=O)N[C@@H](CCCNC(=N)N)C(=O)N[C@@H](CC(C)C)C(=O)N[C@@H](CO)C(=O)N[C@@H](Cc2ccc(O)cc2)C(=O)N[C@@H](CO)C(=O)N[C@@H](CCCNC(=N)N)C(=O)N[C@@H](CCCNC(=N)N)C(=O)N[C@@H](CCCNC(=N)N)C(=O)N[C@@H](Cc2ccccc2)C(=O)N[C@@H](CO)C(=O)N[C@H](C(=O)N[C@@H](CO)C(=O)N[C@H](C(=O)NCC(=O)N[C@@H](CCCNC(=N)N)C(=O)O)C(C)C)C(C)C)[C@H](O)[C@H](C)O1 [Compound 2, doxo-CO-(CH2)2-CO-RGGRLSYSRRRFSVSVGR] ({Doxorubicin(3'-N)-Suc}-RGGRLSYSRRRFSVSVGR-OH; N-terminus and C-terminus assumed)	5	0.9	IC50 (resistant K562/ADR cells [1]; FIG. 5 experiment, linked versus not linked with peptide, cell line not given, resistant cells implied, read-out: IC50): 19 µM; F. Rev ([2]; HL60/R10): 1.6
CC[C@H](C)[C@H](NC(=O)CNC(=O)[C@H](CCCNC(=N)N)NC(=O)[C@H](Cc1ccc(O)cc1)NC(=O)[C@H](CO)NC(=O)[C@@H](NC(=O)[C@H](CCCNC(=N)N)NC(=O)[C@H](Cc1ccccc1)NC(=O)[C@H](CO)NC(=O)[C@H](Cc1c[nH]c2ccccc12)NC(=O)[C@H](CCCCN)NC(=O)CCC(=O)N[C@H]1C[C@H](O[C@H]2C[C@](O)(C(=O)CO)Cc3c(O)c4c(c(O)c32)C(=O)c2c(OC)cccc2C4=O)O[C@@H](C)[C@H]1O)C(C)C)C(=O)N[C@@H](CO)C(=O)N[C@@H](Cc1ccc(O)cc1)C(=O)N[C@@H](CCCNC(=N)N)C(=O)N[C@@H](CCCNC(=N)N)C(=O)N[C@@H](CO)C(=O)N[C@@H](CCCNC(=N)N)C(=O)O [Compound 3, doxo-CO-(CH2)2-CO-KWSFRVSYRGISYRRSR] ({Doxorubicin(3'-N)-Suc}-KWSFRVSYRGISYRRSR-OH; N-terminus and C-terminus assumed)	43	0.8	
COc1cccc2c1C(=O)c1c(O)c3c(c(O)c1C2=O)C[C@@](O)(C(=O)CO)C[C@@H]3O[C@H]1C[C@H](NC(=O)CCC(=O)N[C@@H](CCCNC(=N)N)C(=O)N[C@@H](CCCNC(=N)N)C(=O)N[C@@H](CC(C)C)C(=O)N[C@@H](CO)C(=O)N[C@@H](Cc2ccc(O)cc2)C(=O)N[C@@H](CO)C(=O)N[C@@H](CCCNC(=N)N)C(=O)N[C@@H](CCCNC(=N)N)C(=O)N[C@@H](CCCNC(=N)N)C(=O)N[C@@H](Cc2ccccc2)C(=O)O)[C@H](O)[C@H](C)O1 [Compound 4, doxo-CO-(CH2)2-CO-RRLSYSRRRF] ({Doxorubicin(3'-N)-Suc}-RRLSYSRRRF-OH; N-terminus and C-terminus assumed)	2.8	1	
CC[C@@H](C)[C@@H](NC(=O)[C@@H](CCCCN)NC(=O)[C@H](NC(=O)[C@@H](CCC(N)=O)NC(=O)[C@@H](CCCNC(=N)N)NC(=O)CCSC1CC(=O)N(CCC(=O)N[C@H]2C[C@H](O[C@H]3C[C@](O)(C(=O)CO)Cc4c(O)c5c(c(O)c43)C(=O)c3c(OC)cccc3C5=O)O[C@@H](C)[C@H]2O)C1=O)[C@H](C)CC)C(=O)N[C@H](Cc1c[nH]c2ccccc12)C(=O)N[C@H](Cc1ccccc1)C(=O)N[C@H](CCC(N)=O)C(=O)N[C@H](CC(N)=O)C(=O)N[C@H](CCCNC(=N)N)C(=O)N[C@H](CCCNC(=N)N)C(=O)N[C@H](CCSC)C(=O)N[C@H](CCCCN)C(=O)N[C@H](Cc1c[nH]c2ccccc12)C(=O)N[C@H](CCCCN)C(=O)N[C@H](CCCCN)C(=O)O (some centres unmarked) [Compound 5, doxo-SMP-3MP-rqikiwfgnrrmkwkk]	35	1.3	percentage of positive cells (internalisation) (resistant K562/ADR cells [3]): 98%; IC50 (resistant K562/ADR cells [1]; resistant line K562/ADR, MTT, 50% growth inhibition, read-out: IC50 K562/ADR): 2 µM
CC[C@H](C)[C@H](NC(=O)[C@H](CCCCN)NC(=O)[C@@H](NC(=O)[C@H](CC(N)=O)NC(=O)[C@H](CCC(=O)O)NC(=O)[C@@H](N)CSC1CC(=O)N(CCC(=O)N[C@H]2C[C@H](O[C@H]3C[C@](O)(C(=O)CO)Cc4c(O)c5c(c(O)c43)C(=O)c3c(OC)cccc3C5=O)O[C@@H](C)[C@H]2O)C1=O)[C@@H](C)CC)C(=O)N[C@@H](Cc1c[nH]c2ccccc12)C(=O)N[C@@H](CC(C)C)C(=O)N[C@@H](CO)C(=O)N[C@@H](CC(C)C)C(=O)N[C@@H](CCCNC(=N)N)C(=O)N[C@@H](CO)C(=O)N[C@@H](Cc1ccc(O)cc1)C(=O)N[C@@H](CC(C)C)C(=O)N[C@@H](CCCCN)C(=O)N[C@@H](CCCNC(=N)N)C(=O)N[C@@H](CCCNC(=N)N)C(=O)O (some centres unmarked) [Compound 6, doxo-SMP-CENIKIWLSLRSYLKRR] (H-C(X1)ENIKIWLSLRSYLKRR-OH; N-terminus and C-terminus assumed)	12.8	1.1	
COc1cccc2c1C(=O)c1c(O)c3c(c(O)c1C2=O)C[C@@](O)(C(=O)CO)C[C@@H]3O[C@H]1C[C@H](NC(=O)CCC(=O)N[C@@H](CCCNC(=N)N)C(=O)NCC(=O)NCC(=O)N[C@@H](CCCNC(=N)N)C(=O)N[C@@H](CC(C)C)C(=O)N[C@@H](C)C(=O)N[C@@H](Cc2ccc(O)cc2)C(=O)N[C@@H](CC(C)C)C(=O)N[C@@H](CCCNC(=N)N)C(=O)N[C@@H](CCCNC(=N)N)C(=O)N[C@@H](CCCNC(=N)N)C(=O)N[C@@H](Cc2c[nH]c3ccccc23)C(=O)N[C@@H](C)C(=O)N[C@H](C(=O)N[C@@H](CC(C)C)C(=O)N[C@H](C(=O)NCC(=O)N[C@@H](CCCNC(=N)N)C(=O)O)C(C)C)C(C)C)[C@H](O)[C@H](C)O1 [Compound 7, doxo-CO-(CH2)2-CO-RGGRLAYLRRRWAVLVGR] ({Doxorubicin(3'-N)-Suc}-RGGRLAYLRRRWAVLVGR-OH; N-terminus and C-terminus assumed)	>26	0.85	
COc1cccc2c1C(=O)c1c(O)c3c(c(O)c1C2=O)C[C@@](O)(C(=O)CO)C[C@@H]3O[C@H]1C[C@H](N)[C@H](O)[C@H](C)O1 [Free Doxo, doxorubicin, reference compound]			percentage of positive cells (internalisation) (resistant K562/ADR cells [3]; listed as free doxorubicin): 5.86% and 5.68%; survival of the cells [4]: 15%; survival of the cells (resistant K562/ADR cells [1]; K562/ADR resistant cells, 8 μM, 24 hours incubation, MTT): 100%; IC50 (resistant K562/ADR cells [1]; resistant line K562/ADR, MTT, 50% growth inhibition, listed as free doxorubicin, read-out: IC50 K562/ADR): 70 µM; IC50 ([2]; Homo sapiens, HL-60, HL60/R10 doxorubicin-resistant cells, MTT): 40 µM

Reference: patent US7527792B1, “Pharmaceutical composition comprising an anti-cancer and at least a peptide” (Synt : EM, priority 1998, dated 2009)
